Columns and labels:
Assay in all cases: Metabolic labeling of cellular N-myristoylproteins with tritiated fatty acids
Type in all cases: cell-based
Conditions in all cases: tritiated analog, 1 h, 30° C.
[1] = system: C. albicans N-myristoylproteins
Experimental: (§1) Cells were labeled for 1 h with fatty acids of equal specific activity. Total cellular proteins were reduced, denatured and subjected to SDS-PAGE. Gels were treated overnight with 1 N hydrocylamine (pH 10) at room temperature followed by EN^3 HANCE. Fluorography was performed at -80° C. The exposure time for all gels was identical (2 weeks) as was the total amount of cellular protein added to each lane (100 μg).
(§2) Analysis of the incorporation of exogenous fatty acids into cellular proteins--Cultures of S. cerevisiae YM2061, C. albicans B311, and C. neoformans L210425 were grown overnight at 30° C. in YPD or SAB broth. In the morning, C. albicans and C. neoformans were diluted to an A600 =0.6. All cultures were subsequently shaken at 30° C. until they achieved an A600 =1.2. A 5 ml aliquot of each culture was then incubated at 30° C. with 100 μCi/ml of either [9,10(n)^3 H]myristate (NEN Research Products, Dupont, Boston, Mass.); [6,7(n)^3 H]4-oxatetradecanoate; [9,10(n)^3 H]6-oxatetradecanoate;[9,10(n)^3 H]11-oxatetradecanoate; or [10,11(n)^3 H]13-oxatetradecanoate (the final specific activity of all tritiated fatty acids=30 Ci/mmol, their final concentration=3.3 μM). The cultures were then chilled on ice for 5 min and the cells harvested by centrifugation at 4000×g for 5 min. The pellet was washed by gentle vortexing in 1 ml of phosphate buffered saline (PBS, maintained at 4° C.). The yeast cells were then pelleted by centrifugation (as above) and broken open by vortexing with 500 μm glass beads in a 200 μl solution containing 240 mM Tris-HCl, pH 6.8, 2% SDS, 0.4% β-mercaptoethanol, 0.002% bromophenol blue, and 10% glycerol. The solution was then boiled for 5 min and cellular debris was removed by centrifugation at 12,000×g for 10 min. One hundred μg [Lowry et al., J. Biol. Chem. 193, 265-275 (1951)] of lysate protein from each sample was subjected to denaturation, reduction and electrophoresis through 12% polyacrylamide gels containing 0.1% SDS [Laemmli, Nature 227, 680-685 (1970)]. Duplicate gels were incubated overnight with 1M Tris, pH 7.4, or 1N hydroxylamine, pH 10. Fluorography was performed by treating gels with EN^3 HANCE (NEN Research Products, Dupont) and, following drying, exposing them to Kodak XAR film at -80° C.

[2] = system: C. neoformans N-myristoylproteins
Experimental: as §1, §2

[3] = system: S. cerevisiae N-myristoylproteins
Experimental: as §1, §2

For `CCCCCCCCCCOCCC(=O)O` [O4, 4-oxatetradecanoic acid], the “labeling of C. albicans N-myristoylproteins versus [3H]myristate” value [1] was “more intense labeling”, the “labeling of C. neoformans N-myristoylproteins versus [3H]myristate” value [2] was “comparable labeling” and the “incorporation into the 55 kDa Gpal polypeptide” value [3] was “is incorporated”. The “labeling of S. cerevisiae N-myristoylproteins versus [3H]myristate” value [3] was “more intense labeling” and the “labeling of the 20 kDa Arfs” value [3] was “comparable intensity”.
